Legend:
Experiment in all cases: relative viability (nuclei count vs DMSO), 5 days (fraction); higher = more cells survive
[1] = system: EKVX
Method in brief: (§1)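 Medians of duplicate plates are given as relative viability. That measure is the nuclei count in treated wells divided by the count in vehicle wells. Counts were taken on 4× images of lung cancer cell lines in 1536-well plates, 5 days after pin-tool dosing the day after seeding with one drug alone or a fixed anchor-drug dose plus five library-drug doses (not always all listed) in √10 steps.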

[2] = system: NCI-H1650
Method in brief: as §1

[3] = system: LK-2
Method in brief: as §1

[4] = system: NCI-H1734
Method in brief: as §1

[5] = system: CAL-12T
Method in brief: as §1

[6] = system: NCI-H2342
Method in brief: as §1

[7] = system: NCI-H2405
Method in brief: as §1

[8] = system: NCI-H661
Method in brief: as §1

[9] = system: HCC-827
Method in brief: as §1

[10] = system: LCLC-97TM1
Method in brief: as §1

[11] = system: NCI-H1755
Method in brief: as §1

[12] = system: NCI-H2228
Method in brief: as §1

[13] = system: NCI-H1975
Method in brief: as §1

[14] = system: HCC-15
Method in brief: as §1

[15] = system: PC-3 [JPC-3]
Method in brief: as §1

[16] = system: H3255
Method in brief: as §1

[17] = system: RERF-LC-KJ
Method in brief: as §1

[18] = system: NCI-H1563
Method in brief: as §1

[19] = system: NCI-H520
Method in brief: as §1

[20] = system: NCI-H322M
Method in brief: as §1

[21] = system: NCI-H1355
Method in brief: as §1

[22] = system: PC-14
Method in brief: as §1

Work on `Nc1ccn([C@@H]2O[C@H](CO)[C@@H](O)[C@@H]2O)c(=O)n1` [Cytarabine] + COc1cc2c(Oc3ccc(NC(=O)C4(C(=O)Nc5ccc(F)cc5)CC4)cc3F)ccnc2cc1OCCCN1CCOCC1 [Foretinib] (partner 0.25 µM) yielded a relative viability ([1]; first compound 0.005 µM) of 0.866, a relative viability ([1]; first compound 0.01581 µM) of 0.594 and a relative viability ([1]; first compound 0.05 µM) of 0.622. The relative viability ([1]; first compound 0.1581 µM) was 0.413, the relative viability ([1]; first compound 0.5 µM) was 0.793 and the relative viability ([2]; first compound 0.005 µM) was 0.783. It also gave a relative viability ([2]; first compound 0.01581 µM) of 0.973, a relative viability ([2]; first compound 0.05 µM) of 0.73 and a relative viability ([2]; first compound 0.1581 µM) of 0.347. The relative viability ([2]; first compound 0.5 µM) was 0.211, the relative viability ([3]; first compound 0.005 µM) was 1.33 and the relative viability ([3]; first compound 0.01581 µM) was 0.683. It also gave a relative viability ([3]; first compound 0.05 µM) of 0.741, a relative viability ([3]; first compound 0.1581 µM) of 0.309 and a relative viability ([3]; first compound 0.5 µM) of 0.282. It also gave a relative viability ([4]; first compound 0.005 µM) of 0.553, a relative viability ([4]; first compound 0.01581 µM) of 0.373 and a relative viability ([4]; first compound 0.05 µM) of 0.205. The relative viability ([4]; first compound 0.1581 µM) was 0.164, the relative viability ([4]; first compound 0.5 µM) was 0.124 and the relative viability ([5]; first compound 0.005 µM) was 1.11. It also gave a relative viability ([5]; first compound 0.01581 µM) of 1.18, a relative viability ([5]; first compound 0.05 µM) of 1.05 and a relative viability ([5]; first compound 0.1581 µM) of 0.619. For the same compound, the relative viability ([5]; first compound 0.5 µM) was 0.358, the relative viability ([6]; first compound 0.005 µM) was 0.983 and the relative viability ([6]; first compound 0.01581 µM) was 0.887. It also gave a relative viability ([6]; first compound 0.05 µM) of 0.798, a relative viability ([6]; first compound 0.1581 µM) of 0.784 and a relative viability ([6]; first compound 0.5 µM) of 0.676. For the same compound, the relative viability ([7]; first compound 0.005 µM) was 1.02, the relative viability ([7]; first compound 0.01581 µM) was 0.908 and the relative viability ([7]; first compound 0.05 µM) was 0.747. The relative viability ([7]; first compound 0.1581 µM) was 0.618, the relative viability ([7]; first compound 0.5 µM) was 0.493 and the relative viability ([8]; first compound 0.005 µM) was 0.93. The relative viability ([8]; first compound 0.01581 µM) was 0.942, the relative viability ([8]; first compound 0.05 µM) was 0.884 and the relative viability ([8]; first compound 0.1581 µM) was 0.68. The relative viability ([8]; first compound 0.5 µM) was 0.519, the relative viability ([9]; first compound 0.005 µM) was 0.721 and the relative viability ([9]; first compound 0.01581 µM) was 0.424. For the same compound, the relative viability ([9]; first compound 0.05 µM) was 0.368, the relative viability ([9]; first compound 0.1581 µM) was 0.169 and the relative viability ([9]; first compound 0.5 µM) was 0.177. The relative viability ([10]; first compound 0.005 µM) was 0.924, the relative viability ([10]; first compound 0.01581 µM) was 0.814 and the relative viability ([10]; first compound 0.05 µM) was 0.749. It also gave a relative viability ([10]; first compound 0.1581 µM) of 0.469, a relative viability ([10]; first compound 0.5 µM) of 0.485 and a relative viability ([11]; first compound 0.005 µM) of 0.962. For the same compound, the relative viability ([11]; first compound 0.01581 µM) was 0.886, the relative viability ([11]; first compound 0.05 µM) was 0.736 and the relative viability ([11]; first compound 0.1581 µM) was 0.387. It also gave a relative viability ([11]; first compound 0.5 µM) of 0.356, a relative viability ([12]; first compound 0.005 µM) of 0.479 and a relative viability ([12]; first compound 0.01581 µM) of 0.563. For the same compound, the relative viability ([12]; first compound 0.05 µM) was 0.285, the relative viability ([12]; first compound 0.1581 µM) was 0.173 and the relative viability ([12]; first compound 0.5 µM) was 0.166. It also gave a relative viability ([13]; first compound 0.005 µM) of 0.982, a relative viability ([13]; first compound 0.01581 µM) of 1.03 and a relative viability ([13]; first compound 0.05 µM) of 0.889. For the same compound, the relative viability ([13]; first compound 0.1581 µM) was 0.481, the relative viability ([13]; first compound 0.5 µM) was 0.314 and the relative viability ([14]; first compound 0.005 µM) was 0.905. It also gave a relative viability ([14]; first compound 0.01581 µM) of 1.05, a relative viability ([14]; first compound 0.05 µM) of 0.996 and a relative viability ([14]; first compound 0.1581 µM) of 0.77. The relative viability ([14]; first compound 0.5 µM) was 0.706, the relative viability ([15]; first compound 0.005 µM) was 0.947 and the relative viability ([15]; first compound 0.01581 µM) was 0.832. It also gave a relative viability ([15]; first compound 0.05 µM) of 0.939, a relative viability ([15]; first compound 0.1581 µM) of 0.629 and a relative viability ([15]; first compound 0.5 µM) of 0.615. For the same compound, the relative viability ([16]; first compound 0.005 µM) was 0.889, the relative viability ([16]; first compound 0.01581 µM) was 0.905 and the relative viability ([16]; first compound 0.05 µM) was 0.628. For the same compound, the relative viability ([16]; first compound 0.1581 µM) was 0.665, the relative viability ([16]; first compound 0.5 µM) was 0.531 and the relative viability ([17]; first compound 0.005 µM) was 0.855. It also gave a relative viability ([17]; first compound 0.01581 µM) of 0.787, a relative viability ([17]; first compound 0.05 µM) of 0.735 and a relative viability ([17]; first compound 0.1581 µM) of 0.545. The relative viability ([17]; first compound 0.5 µM) was 0.469, the relative viability ([18]; first compound 0.005 µM) was 0.869 and the relative viability ([18]; first compound 0.01581 µM) was 0.875. For the same compound, the relative viability ([18]; first compound 0.05 µM) was 0.869, the relative viability ([18]; first compound 0.1581 µM) was 0.846 and the relative viability ([18]; first compound 0.5 µM) was 0.73. For the same compound, the relative viability ([19]; first compound 0.005 µM) was 0.739, the relative viability ([19]; first compound 0.01581 µM) was 0.795 and the relative viability ([19]; first compound 0.05 µM) was 0.974. The relative viability ([19]; first compound 0.1581 µM) was 0.621, the relative viability ([19]; first compound 0.5 µM) was 0.589 and the relative viability ([20]; first compound 0.005 µM) was 0.827. The relative viability ([20]; first compound 0.01581 µM) was 0.761, the relative viability ([20]; first compound 0.05 µM) was 0.677 and the relative viability ([20]; first compound 0.1581 µM) was 0.464. The relative viability ([20]; first compound 0.5 µM) was 0.336, the relative viability ([21]; first compound 0.005 µM) was 0.976 and the relative viability ([21]; first compound 0.01581 µM) was 0.912. The relative viability ([21]; first compound 0.05 µM) was 0.911, the relative viability ([21]; first compound 0.1581 µM) was 0.501 and the relative viability ([21]; first compound 0.5 µM) was 0.444. For the same compound, the relative viability ([22]; first compound 0.005 µM) was 0.808, the relative viability ([22]; first compound 0.01581 µM) was 0.914 and the relative viability ([22]; first compound 0.05 µM) was 1.02. The relative viability ([22]; first compound 0.1581 µM) was 0.536 and the relative viability ([22]; first compound 0.5 µM) was 0.349.

— the supplement of paper PMC10307832
